{
  "source": "patent US20250282753A1",
  "about": "“COMPOUNDS USEFUL FOR REDUCING URIC ACID” (ATOM BIOSCIENCE AMERICA CORPORATION, priority 2022, published 2025)",
  "key": {"[1]": {"system": "potassium oxonate-induced hyperuricemic rats", "assay": "Serum uric acid in potassium oxonate-induced hyperuricemic rats, single gavage (Example 34)", "assay_type": "in vivo, SD rats", "settings": "for Uric acid 1 h / Uric acid 3 h / Uric acid 5 h: serum, mean ± SD; for Uric acid 1 h: 1 h after potassium oxonate injection; for Uric acid 3 h: 3 h after potassium oxonate injection; for Uric acid 5 h: 5 h after potassium oxonate injection", "description": "36 male SD rats weighed approximately 200-230 g after one week of adaptation. […] The drugs in each group were prepared into a corresponding concentration suspension, and the administration volume was 0.5 mL/100 g.\nAfter the rats in each group were purchased and adapted to feeding, they were fasted for 12 h, and intraperitoneally injected with potassium oxonate at a dose of 300 mg/kg to establish the model. After 0.5 h of model establishment, each test drug group was gavaged once. Blood was collected from the retro-orbital venous plexus before and 1, 3, and 5 h after potassium oxonate injection. The samples were centrifuged at 3500 rpm for 10 min. 30 μL of serum was collected to determine the uric acid level at each time point.\nThe measurement data of each test were expressed as (mean)+standard deviation). The comparison between groups used ANOVA-Dunnett T test to examine the significance. P<0.05 was used as the significance index, and P<0.01 was used as the extremely significant index."}, "[2]": {"settings": "cited from earlier work; for Sudden cardiac death, number of cases / Sudden cardiac death, share of group: per treatment group"}, "[3]": {"system": "potassium oxonate-induced hyperuricemic rats", "assay": "Serum uric acid in potassium oxonate-induced hyperuricemic rats, 3 days of gavage (Example 35)", "assay_type": "in vivo, SD rats", "description": "Compound 13 was a light yellow powder, and compounds 38 and 41 are pseudo-white powders, which are triturated with 0.5% CMC-Na just prior to use to prepare a 0.4 mg/mL suspension for gavage.\n36 male SD rats weighed approximately 220-240 g after one week of adaptation. […] The drugs in each group were prepared into a corresponding concentration suspension, and the administration volume was 0.5 mL/100 g.\nAfter the rats in each group were purchased and adapted to feeding, they were fasted for 12 h, and, intraperitoneally, injected with⋅ potassium⋅ gxonate at a⋅dose of 300 mg/kg to establish the model. 0.5 h after modeling, each test drug group was gavaged once. The drug was administered continuously for 3 days. On day 3, blood samples was collected from the retro-orbital venous plexus before and 1, 3, and 5 h after potassium oxonate injection. The samples were centrifuged at 3500 rpm for 10 min, and 30 μL of serum was collected to determine the uric acid level at each time point.\nThe measurement data of each test were expressed as (mean)±standard deviation). The comparison between groups used ANOVA-Dunnett T test to examine the significance. P<0.05 was used as the significance index, and P<0.01 was used as the extremely significant index."}, "[4]": {"settings": "allopurinol used at the maximum dose; cited from earlier work"}, "[5]": {"settings": "cited from earlier work"}, "[6]": {"settings": "Febuxostat group vs allopurinol group"}},
  "data": [
    {"compound": "Cc1nc(-c2ccc(OCC(C)C)c(C#N)c2)sc1C(=O)O", "note": "[Febuxostat, reference compound]", "values": [
      {"measurement": "serum uric acid level compared with the model group at the same time point", "setting": "[1]; 1 mg/kg and 2 mg/kg, 1, 3, and 5 h after modeling, P<0.01", "value": "significantly reduce"},
      {"measurement": "Uric acid 1 h", "setting": "[1]; 1 mg/kg gavage once", "value": "78.0 ± 17.5", "unit": "µmol/L"},
      {"measurement": "Uric acid 3 h", "setting": "[1]; 1 mg/kg gavage once", "value": "63.3 ± 13.8", "unit": "µmol/L"},
      {"measurement": "Uric acid 5 h", "setting": "[1]; 1 mg/kg gavage once", "value": "59.0 ± 9.8", "unit": "µmol/L"},
      {"measurement": "Uric acid 1 h", "setting": "[1]; 2 mg/kg gavage once", "value": "40.6 ± 10.6", "unit": "µmol/L"},
      {"measurement": "Uric acid 3 h", "setting": "[1]; 2 mg/kg gavage once", "value": "50.1 ± 10.7", "unit": "µmol/L"},
      {"measurement": "Uric acid 5 h", "setting": "[1]; 2 mg/kg gavage once", "value": "61.4 ± 7.1", "unit": "µmol/L"},
      {"measurement": "increase in all-cause mortality", "setting": "[2]; [6]", "value": 22, "unit": "%"},
      {"measurement": "increase in cardiovascular mortality", "setting": "[2]; [6]", "value": 34, "unit": "%"},
      {"measurement": "all-cause mortality, HR", "setting": "[2]; Febuxostat vs allopurinol group, 95% CI 1.01-1.47", "value": 1.22},
      {"measurement": "cardiovascular mortality, HR", "setting": "[2]; Febuxostat vs allopurinol group, 95% CI 1.03-1.73", "value": 1.34},
      {"measurement": "overall risk of adverse cardiovascular events, HR", "setting": "[2]; Febuxostat vs allopurinol group, average of 32 months of treatment, 95% CI 0.87-1.23", "value": 1.03},
      {"measurement": "Sudden cardiac death, number of cases", "setting": "[2]", "value": 83, "unit": "cases"},
      {"measurement": "Sudden cardiac death, share of group", "setting": "[2]", "value": 2.7, "unit": "%"},
      {"measurement": "serum uric acid level compared with the model group at the same time point", "setting": "[3]; 2 mg/kg for 3 days, 1, 3, and 5 h after modeling, P<0.01", "value": "significantly reduce"},
      {"measurement": "Uric acid 0 h", "setting": "[3]; serum, 2 mg/kg gavage for 3 days, day 3, 0 h, before potassium oxonate injection, mean ± SD, n=6", "value": "39.2 ± 6.2", "unit": "µmol/L"},
      {"measurement": "Uric acid 1 h", "setting": "[3]; serum, 2 mg/kg gavage for 3 days, day 3, 1 h after potassium oxonate injection, mean ± SD", "value": "34.4 ± 7.1", "unit": "µmol/L"},
      {"measurement": "Uric acid 3 h", "setting": "[3]; serum, 2 mg/kg gavage for 3 days, day 3, 3 h after potassium oxonate injection, mean ± SD", "value": "31.2 ± 7.6", "unit": "µmol/L"},
      {"measurement": "Uric acid 5 h", "setting": "[3]; serum, 2 mg/kg gavage for 3 days, day 3, 5 h after potassium oxonate injection, mean ± SD", "value": "24.7 ± 4.7", "unit": "µmol/L"}
    ]},
    {"compound": "Oc1ncnc2[nH]ncc12", "note": "[allopurinol]", "values": [
      {"measurement": "rate of subjects reaching the treatment endpoint", "setting": "[4]", "value": "less than 50%"},
      {"measurement": "Sudden cardiac death, number of cases", "setting": "[2]", "value": 56, "unit": "cases"},
      {"measurement": "Sudden cardiac death, share of group", "setting": "[2]", "value": 1.8, "unit": "%"}
    ]},
    {"compound": "Pegloticase", "values": [
      {"measurement": "patients experiencing severe immune allergic side effects", "setting": "[5]; human, in vivo, iv", "value": "20-40%"},
      {"measurement": "patients reaching the treatment endpoint of below 0.36 mmol/L", "setting": "[5]; intravenous injection", "value": 47, "unit": "%"}
    ]}
  ]
}
